Reference: paper PMC3517147 (Chembiochem : a European journal of chemical biology, 2012)
Where two headings read alike, the source gives them in different places. Peptide text beside a SMILES is read from it.

Key:
[1] = molecular target: T1, AICAR Tfase activity of avian ATIC (Gallus gallus, UniProt P31335); assay: AICAR Tfase inhibition assay
T1 sequence (P31335 1-593): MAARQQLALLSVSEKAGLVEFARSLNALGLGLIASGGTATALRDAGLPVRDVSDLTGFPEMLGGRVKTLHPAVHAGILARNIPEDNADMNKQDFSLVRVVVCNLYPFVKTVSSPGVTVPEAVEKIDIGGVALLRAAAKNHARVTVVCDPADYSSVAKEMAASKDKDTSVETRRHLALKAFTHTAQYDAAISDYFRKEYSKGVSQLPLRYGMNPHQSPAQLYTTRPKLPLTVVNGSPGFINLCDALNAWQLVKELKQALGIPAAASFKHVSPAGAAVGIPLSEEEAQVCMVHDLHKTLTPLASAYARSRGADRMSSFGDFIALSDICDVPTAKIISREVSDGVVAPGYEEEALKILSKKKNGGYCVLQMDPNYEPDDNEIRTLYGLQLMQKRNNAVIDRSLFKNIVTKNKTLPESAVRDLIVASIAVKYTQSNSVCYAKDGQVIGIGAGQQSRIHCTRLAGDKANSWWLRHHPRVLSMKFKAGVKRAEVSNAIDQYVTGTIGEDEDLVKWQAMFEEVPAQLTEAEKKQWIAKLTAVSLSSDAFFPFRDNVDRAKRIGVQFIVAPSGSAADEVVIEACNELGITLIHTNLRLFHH

human ATIC homodimer = human ATIC homodimer (Homo sapiens, UniProt P31939); assay: Size exclusion chromatography of ATIC monomer/dimer ratio; type: binding; details: 50 μM ATIC treated with 10 μM compound
Chain of human ATIC homodimer (P31939 whole entry): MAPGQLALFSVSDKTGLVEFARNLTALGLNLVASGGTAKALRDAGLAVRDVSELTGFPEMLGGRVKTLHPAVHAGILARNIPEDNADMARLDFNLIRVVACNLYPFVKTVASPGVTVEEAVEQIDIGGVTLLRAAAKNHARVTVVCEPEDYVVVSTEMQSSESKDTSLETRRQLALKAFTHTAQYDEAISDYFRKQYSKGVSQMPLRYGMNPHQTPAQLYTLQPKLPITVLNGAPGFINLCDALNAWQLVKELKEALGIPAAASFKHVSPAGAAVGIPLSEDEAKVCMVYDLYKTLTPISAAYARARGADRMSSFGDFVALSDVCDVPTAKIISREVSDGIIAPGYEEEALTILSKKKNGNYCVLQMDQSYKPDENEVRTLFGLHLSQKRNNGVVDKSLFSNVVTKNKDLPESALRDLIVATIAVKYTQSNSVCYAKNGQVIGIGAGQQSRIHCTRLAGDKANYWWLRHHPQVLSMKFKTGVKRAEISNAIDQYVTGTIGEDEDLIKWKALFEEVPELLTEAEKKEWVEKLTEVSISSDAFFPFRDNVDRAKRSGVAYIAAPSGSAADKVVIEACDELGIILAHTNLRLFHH

[2] = molecular target: T2, AICAR Tfase activity of ATIC (Gallus gallus, UniProt P31335); assay: AICAR Tfase inhibition in the presence of BSA; type: biochemical; details: compound at 10 μM and 50 μM; 1 mg/mL and 10 mg/mL BSA
T2 sequence (P31335 1-593): T1 sequence (P31335 1-593)

MCF-7 cells [3] = assay: Live-cell imaging; type: cell-based; details: MCF-7, 250 μM
human ATIC = human ATIC (Homo sapiens, UniProt P31939); assay: AICAR Tfase inhibition assay with human ATIC; type: biochemical
Chain of human ATIC (P31939 whole entry): as above

MCF-7 cells [4] = assay: MTS-based cell proliferation; details: 48 hours after dosing

With `CC(C)[C@@H]1NC(=O)[C@H](CC(N)=O)NC(=O)[C@H](Cc2ccccc2)NC(=O)[C@H](C)NC(=O)[C@H](CCCNC(=N)N)NC(=O)[C@H](CS)NC1=O` [Compound 4, cyclo-CRAFNV] (cyclo(AFNVCR)) the Ki [1] was greater than 2500 µM.
For `CCN(CC)C(=O)[C@H](Cc1ccc([N+](=O)[O-])cc1)NC(=O)[C@H](CCCNC(=N)N)NC(C)=O` [Compound 14, Acetyl-Arg-CONH-Phe(4-NO2)-L-Diethylamide], the Ki ([1]; Table 2, RY analogues, avian ATIC, 25 °C) was 0.685 ± 0.035 µM, the “fold improvement in activity compared to capped RY dimer 8” value ([1]; from Ki values of Table 2) was 120 fold and the “ATIC species observed by size exclusion chromatography” value (human ATIC homodimer) was “presence of monomeric ATIC”. The “AICAR Tfase inhibition in presence of BSA” value [2] was “continued to inhibit the reaction to a similar extent as observed in the absence of BSA”, the “mechanism of effect on cell numbers” value (MCF-7 cells [3]; analysis of videos over 72 hours) was “reduction in cell division rates, rather than an increase in cell death” and the “reduction in proliferation compared to control-treated cells” value (MCF-7 cells [3]; time-lapse microscopy over 72 hours) was 35%. The “Ki with human ATIC compared to the avian enzyme” value (human ATIC) was “same Ki (within error)”, the inhibition of viability (MCF-7 cells [4]; MCF-7, 500 μM (maximum dose)) was 40% and the “effect on viability” value (MCF-7 cells [4]; MCF-7, 100, 250 or 500 μM) was “dose-dependent reduction in viability”.
`CC(C)[C@@H]1NC(=O)[C@H](CC(N)=O)NC(=O)[C@H](Cc2ccccc2)NC(=O)[C@H](Cc2ccc(O)cc2)NC(=O)[C@H](C)NC(=O)[C@H](CS)NC1=O` [Compound 3, cyclo-CAYFNV] (cyclo(AYFNVC)) was tested, and the Ki [1] was greater than 2500 µM.
For linear-CRYFNV [reference compound], the “fold loss of activity compared to cyclo-CRYFNV” value ([1]; from Ki values) was 8 fold.
In the case of `CC(C)[C@@H]1NC(=O)[C@H](C)NC(=O)[C@H](Cc2ccccc2)NC(=O)[C@H](Cc2ccc(O)cc2)NC(=O)[C@H](CCCNC(=N)N)NC(=O)[C@H](CS)NC1=O` [Compound 6, cyclo-CRYFAV] (cyclo(AVCRYF)), the Ki [1] is reported as 368 ± 29 µM.
For `CC(C)[C@@H]1NC(=O)[C@H](CC(N)=O)NC(=O)[C@H](Cc2ccccc2)NC(=O)[C@H](Cc2ccc(O)cc2)NC(=O)[C@H](CCCNC(=N)N)NC(=O)[C@H](CS)NC1=O` [Compound 1, cyclo-CRYFNV] (cyclo(RYFNVC)), the “Ki with human ATIC compared to the avian enzyme” value (human ATIC) was “same Ki (within error)”.
In the case of `CC(C)[C@@H]1NC(=O)[C@H](CC(N)=O)NC(=O)[C@H](C)NC(=O)[C@H](Cc2ccc(O)cc2)NC(=O)[C@H](CCCNC(=N)N)NC(=O)[C@H](CS)NC1=O` [Compound 5, cyclo-CRYANV] (cyclo(ANVCRY)), the Ki [1] is reported as 38 ± 5 µM.
For `CC(C)[C@@H]1NC(=O)[C@H](CC(N)=O)NC(=O)[C@H](Cc2ccccc2)NC(=O)[C@H](Cc2ccc(O)cc2)NC(=O)[C@H](CCCNC(=N)N)NC(=O)[C@H](C)NC1=O` [Compound 2, cyclo-ARYFNV] (cyclo(ARYFNV)), the Ki [1] was 651 ± 25 µM.
For `C[C@@H]1NC(=O)[C@H](CC(N)=O)NC(=O)[C@H](Cc2ccccc2)NC(=O)[C@H](Cc2ccc(O)cc2)NC(=O)[C@H](CCCNC(=N)N)NC(=O)[C@H](CS)NC1=O` [Compound 7, cyclo-CRYFNA] (cyclo(ACRYFN)), the Ki [1] was 252 ± 22 µM.
